Test [1] has as its target T1, Angiotensin II receptor (AT-1) type-1 (Rattus norvegicus, UniProt P29089+P25095).
T1 sequence (P29089 whole entry): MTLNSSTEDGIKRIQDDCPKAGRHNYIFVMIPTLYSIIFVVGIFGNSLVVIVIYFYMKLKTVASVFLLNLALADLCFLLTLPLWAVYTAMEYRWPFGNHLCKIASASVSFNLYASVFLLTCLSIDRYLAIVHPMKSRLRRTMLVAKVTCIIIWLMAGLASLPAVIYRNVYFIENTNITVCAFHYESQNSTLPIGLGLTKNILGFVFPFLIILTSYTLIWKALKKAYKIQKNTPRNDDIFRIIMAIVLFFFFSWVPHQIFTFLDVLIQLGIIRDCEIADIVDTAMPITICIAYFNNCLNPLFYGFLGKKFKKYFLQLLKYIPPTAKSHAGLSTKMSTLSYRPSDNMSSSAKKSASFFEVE
T1 sequence (P25095 whole entry): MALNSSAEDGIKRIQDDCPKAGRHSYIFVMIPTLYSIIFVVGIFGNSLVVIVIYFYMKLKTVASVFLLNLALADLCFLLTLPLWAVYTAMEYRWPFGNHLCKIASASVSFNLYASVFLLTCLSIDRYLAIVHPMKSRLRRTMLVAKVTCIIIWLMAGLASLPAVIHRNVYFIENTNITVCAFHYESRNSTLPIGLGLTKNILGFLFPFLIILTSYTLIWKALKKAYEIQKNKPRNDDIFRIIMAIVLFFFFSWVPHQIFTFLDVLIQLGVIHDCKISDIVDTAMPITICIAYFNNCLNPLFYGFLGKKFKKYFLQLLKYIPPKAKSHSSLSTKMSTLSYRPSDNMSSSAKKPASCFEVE
Nature of the test: Binding affinity for Angiotensin II receptor, type 1 in rat adrenal cortical membranes using [125I]Sar1, Ile8-angiotensin II. Format: cell membranes.

Test [2] addresses Angiotensin II receptor type 1 (Oryctolagus cuniculus) (UniProt P34976). Nature of the test: Antagonism of angiotensin II induced contraction of isolated rabbit aorta.
Test [3] has as its target T1, Angiotensin II receptor (AT-1) type-1. Nature of the test: Binding affinity of compound in presence of bovine serum albumin (BSA) at 0.22% against rat adrenal Angiotensin II receptor, type 1. Format: cell-free.
The target is the same in test [4]. In words: Binding affinity of compound in presence of bovine serum albumin (BSA) at 0% against rat adrenal Angiotensin II receptor, type 1. Format: cell-free.
Test [5] shares this target. Nature of the test: Binding affinity of compound in presence of bovine serum albumin (BSA) at 0.01% against rat adrenal Angiotensin II receptor, type 1. Format: cell-free.
For test [6] the target is unchanged. In words: Binding affinity of compound in presence of bovine serum albumin (BSA) at 0% against rat Angiotensin II receptor, type 1. Format: cell-free.
The target is the same in test [7]. Nature of the test: Binding affinity of compound in presence of bovine serum albumin (BSA) at 0.01% against rat Angiotensin II receptor, type 1. Format: cell-free.

The Ki is the dissociation constant of the complex between target and ligand, obtained from inhibition or displacement. For orientation: Kb means the affinity of an antagonist, worked out from how it opposes an agonist.

Angiotensin II receptor type 1 (Oryctolagus cuniculus), sequence (P34976 whole entry, looked up): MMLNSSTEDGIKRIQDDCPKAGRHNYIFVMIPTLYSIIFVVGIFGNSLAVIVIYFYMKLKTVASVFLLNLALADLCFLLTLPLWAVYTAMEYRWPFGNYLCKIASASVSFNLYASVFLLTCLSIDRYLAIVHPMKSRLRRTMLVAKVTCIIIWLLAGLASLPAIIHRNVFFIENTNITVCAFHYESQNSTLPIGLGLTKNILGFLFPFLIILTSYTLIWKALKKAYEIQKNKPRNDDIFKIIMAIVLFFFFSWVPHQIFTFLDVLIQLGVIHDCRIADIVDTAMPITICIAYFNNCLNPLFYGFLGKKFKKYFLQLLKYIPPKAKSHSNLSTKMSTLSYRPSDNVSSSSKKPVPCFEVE

On to `CCCCOc1ccc2c(nc(Oc3ccc(-c4ccccc4-c4nn[nH]n4)cc3)c(CCCC)[n+]2[O-])c1C(=O)O`, for which the Ki in test [1] is 50 nM. Besides, the Kb in test [2] came out at 0.27 nM.
`CCCCc1c(Oc2ccc(-c3ccccc3-c3nn[nH]n3)cc2)nc2c(C(=O)O)c(OCCC)ccc2[n+]1[O-]` had a Ki in test [1] of 68 nM. This compound yielded a Kb in test [2] of 0.19 nM.
For the compound `CCCCc1nc2ccccc2nc1Oc1ccc(-c2ccccc2-c2nn[nH]n2)cc1`, the Ki is listed as 2200 nM in test [3] and 137 nM in test [1]. The same compound returned a Kb in test [2] of 290 nM.
In test [1], `CCCCc1nc2ccc(F)c(C(=O)O)c2nc1Oc1ccc(-c2ccccc2-c2nn[nH]n2)cc1` came in with a Ki of 21 nM. This compound returned a Kb in test [2] of 0.97 nM.
As for `CCCCc1c(Oc2ccc(-c3ccccc3-c3nn[nH]n3)cc2)nc2c(C(=O)O)c(OCC(F)(F)F)ccc2[n+]1[O-]`, the Ki in test [1] was 22 nM. This compound had a Kb in test [2] of 2 nM.
For the compound `CCCCc1nc2ccccc2[n+]([O-])c1Oc1ccc(-c2ccccc2-c2nn[nH]n2)cc1`, in test [1], the Ki is 4.5 nM. In addition, the Kb in test [2] is 0.44 nM.
Consider `CCCCc1c(Oc2ccc(-c3ccccc3-c3nn[nH]n3)cc2)nc2c(C(=O)O)c(OCC)ccc2[n+]1[O-]`, for which the Ki in test [4] was found to be 0.4 nM; in test [5] it was 1.3 nM; in test [1] it was 1.3 nM. The compound also gave a Kb in test [2] of 0.026 nM.
Compound `CCCc1nc2cccc(C(=O)O)c2nc1Oc1ccc(-c2ccccc2-c2nn[nH]n2)cc1` displayed a Ki in test [1] of 190 nM. In test [2], this compound showed a Kb of 13 nM.
Turning to `CCCCc1nc2cccc(C(=O)O)c2nc1Oc1ccc(-c2ccccc2-c2nn[nH]n2)cc1`, the results for the Ki in test [6], in test [7] and in test [1] were 5.5 nM, 46 nM and 46 nM, respectively. The Kb in test [2] amounted to 2.1 nM.
Regarding `CCCCc1c(Oc2ccc(-c3ccccc3-c3nn[nH]n3)cc2)nc2c(C(=O)O)c(OC(C)C)ccc2[n+]1[O-]`, in test [1], the Ki is reported as 28 nM.
The compound `Cc1nc2ccccc2nc1Oc1ccc(-c2ccccc2-c2nn[nH]n2)cc1` had a Kb in test [2] of 2300 nM.
`CCCCc1c(Oc2ccc(-c3ccccc3-c3nn[nH]n3)cc2)nc2ccccc2[n+]1[O-]`: the results for the Ki in test [5], in test [3] and in test [1] were 71 nM, 580 nM and 71 nM, respectively. In test [2], this compound came in with a Kb of 230 nM.
In test [1], `CCCCc1nc2ccc(OCC)c(C(=O)O)c2nc1Oc1ccc(-c2ccccc2-c2nn[nH]n2)cc1` gave a Ki of 44 nM. Also, the Kb in test [2] was 0.12 nM.
The compound `CCCCc1c(Oc2ccc(-c3ccccc3-c3nn[nH]n3)cc2)nc2c(C(=O)O)cccc2[n+]1[O-]` returned a Kb in test [2] of 0.5 nM.
For the compound `CCCCc1c(Oc2ccc(-c3ccccc3-c3nn[nH]n3)cc2)nc2c(C(=O)O)c(N)ccc2[n+]1[O-]`, in test [1], the Ki is 7.4 nM. In test [2], the antagonist equilibrium constant (Kb) was found to be 0.25 nM.
Consider `Cc1c(Oc2ccc(-c3ccccc3-c3nn[nH]n3)cc2)nc2ccccc2[n+]1[O-]`, for which the Ki in test [5] amounted to 550 nM; in test [3], 24400 nM; in test [1] it was 550 nM. Besides, the Kb in test [2] worked out at 480 nM.
Take `CCCCc1c(Oc2ccc(-c3ccccc3-c3nn[nH]n3)cc2)nc2c(C(=O)O)c(F)ccc2[n+]1[O-]`: the Ki in test [1] was determined as 9 nM. The antagonist dissociation constant (Kb) in test [2] turned out to be 0.58 nM.
The compound `CCCCc1c(Oc2ccc(-c3ccccc3-c3nn[nH]n3)cc2)nc2c(C(=O)O)c(OC)ccc2[n+]1[O-]` registered a Ki in test [1] of 17 nM. In test [2], this compound yielded a Kb of 0.13 nM.

The record behind these values is ChEMBL document CHEMBL1126953, “Quinoxaline N-oxide containing potent angiotensin II receptor antagonists: synthesis, biological properties, and structure-activity relationships” (J Med Chem, 1993).
